Measurements from patent US20250059156A1, “THERAPEUTIC ALKALOID COMPOUNDS” (Sensorium Therapeutics, Inc., priority 2022, published 2025).

Key:
SERT = SERT (Homo sapiens (Human), UniProt P31645); assay: SERT inhibition assay (Neurotransmitter Transporter Fluorescence assay); type: cell-based; conditions: class symbols; legend in nM/micromolar
Method: SERT inhibition was measured using a Neruotransmitter Transportation Fluorescence assay. Briefly, stable 5HHH cells were prepared in a 384 microwell plate. Compounds were prepared by in assay buffer (20 mM HEPES, 0.1% BSA). The compounds were added to the plated cells and incubated for 30 minutes at 37° C. 25 μL of dye solution (Molecular Devices Neurotransmitter Transporter Uptake Assay Kit) was added per well and incubated for 30 minutes at 37° C. The plates were then read on a plate reader.

PDE4A1A = PDE4A1A (Homo sapiens (Human), UniProt P27815); assay: PDE4 percent inhibition assay; type: biochemical; conditions: for inhibition at 10 µM: read-out: PDE4 Isoform % Inhibition @ 10 μM PDE4A1A
Method: (§1) PDE4 assay kit (BPS Bioscience, San Diego, CA), as described below.
(§2) • 1) Dilute 20 μM FAM-Cyclic-3′, 5′-AMP stock 100-fold with PDE buffer to make a 200 nM solution. Make only sufficient quantity needed for the assay; store remaining 20 μM stock solution in aliquots at −20° C. • 2) Add 25 μl of FAM-Cyclic-3′,5′-AMP (200 nM) to each well designated “Positive Control”, “Test Inhibitor”, and “Substrate Control”. • 3) Add 20 μl of PDE assay buffer to each well designated “Substrate Control” and 45 μl of PDE assay buffer to each well designated “Blank”. • 4) Add 5 μl of inhibitor solution to each well designated “Test Inhibitor”. For the wells labeled “Positive Control”, “Substrate Control” and “Blank”, add 5 μl of the same solution without inhibitor (inhibitor buffer). • 5) Thaw PDE on ice. Upon first thaw, briefly spin tube containing enzyme to recover the full contents of the tube. • 6) Dilute PDE4 in PDE buffer to 7.5 pg/μl (0.15 ng/reaction)*. Initiate reaction by adding 20 μl of PDE4 (7.5 pg/μl) to the wells designated “Positive Control” and “Test Inhibitor.” • 7) Incubate at room temperature for 1 hour.
(§3) • 1) Mix binding agent thoroughly and dilute binding agent 1:100 with binding agent diluent. • 2) Add 100 μl diluted binding agent to each microwell. Incubate at room temperature for 1 hour with slow shaking. • 3) Read the fluorescent polarization of the sample in a microtiter-plate reader equipped for the measurement of fluorescence polarization, capable of excitation at wavelengths ranging from 485±5 nm and detection of emitted light ranging from 528±10 nm. Blank value is subtracted from all other values.
(§4) 100 µM dilutions of the test compounds were prepared in assay buffer (10% DMSO concentration) and 5 μl of the dilution was added to a 50 μl reaction so that the final concentration of DMSO is 1% in all of reactions.
(§5) The enzymatic reactions were conducted at room temperature for 60 minutes in a 50 μl mixture containing PDE assay buffer, 100 nM FAM-cAMP, a PDE enzyme and the test compound.
(§6) After the enzymatic reaction, 100 Is of a binding solution (1:100 dilution of the binding agent with the binding agent diluent) was added to each reaction and the reaction was performed at room temperature for 60 minutes.
(§7) Fluorescence intensity was measured at an excitation of 485 nm and an emission of 528 nm using a Tecan Infinite M1000 microplate reader.

PDE4B2 = PDE4B2 (Homo sapiens (Human), UniProt Q07343); assay: PDE4 percent inhibition assay; type: biochemical; conditions: for inhibition at 10 µM: read-out: PDE4 Isoform % Inhibition @ 10 μM PDE4B2
Method: as §1, §2, §3, §4, §5, §6, §7

PDE4C1 = PDE4C1 (Homo sapiens (Human), UniProt Q08493); assay: PDE4 percent inhibition assay; type: biochemical; conditions: for inhibition at 10 µM: read-out: PDE4 Isoform % Inhibition @ 10 μM PDE4C1
Method: as §1, §2, §3, §4, §5, §6, §7

PDE4D2 = PDE4D2 (Homo sapiens (Human), UniProt Q08499); assay: PDE4 percent inhibition assay; type: biochemical; conditions: for inhibition at 10 µM: read-out: PDE4 Isoform % Inhibition @ 10 μM PDE4D2
Method: as §1, §2, §3, §4, §5, §6, §7

Chain of PDE4B2 (Q07343 other isoform, or with tags, fused parts or gaps): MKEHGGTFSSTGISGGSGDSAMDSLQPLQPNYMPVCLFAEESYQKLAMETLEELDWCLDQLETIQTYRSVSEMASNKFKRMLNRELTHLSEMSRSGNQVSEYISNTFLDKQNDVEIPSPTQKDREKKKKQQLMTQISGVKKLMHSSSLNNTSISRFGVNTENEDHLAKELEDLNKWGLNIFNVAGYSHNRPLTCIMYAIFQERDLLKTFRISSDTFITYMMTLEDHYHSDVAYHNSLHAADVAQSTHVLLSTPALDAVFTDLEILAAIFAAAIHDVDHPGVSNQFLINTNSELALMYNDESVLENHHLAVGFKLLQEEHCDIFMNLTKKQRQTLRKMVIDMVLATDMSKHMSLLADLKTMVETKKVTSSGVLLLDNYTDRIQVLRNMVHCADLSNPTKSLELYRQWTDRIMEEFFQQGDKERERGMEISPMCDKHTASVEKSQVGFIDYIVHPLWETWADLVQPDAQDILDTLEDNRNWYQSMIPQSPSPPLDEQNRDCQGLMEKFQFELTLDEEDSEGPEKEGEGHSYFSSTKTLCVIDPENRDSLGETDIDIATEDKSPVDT
Chain of PDE4D2 (Q08499 303-809, change not shown): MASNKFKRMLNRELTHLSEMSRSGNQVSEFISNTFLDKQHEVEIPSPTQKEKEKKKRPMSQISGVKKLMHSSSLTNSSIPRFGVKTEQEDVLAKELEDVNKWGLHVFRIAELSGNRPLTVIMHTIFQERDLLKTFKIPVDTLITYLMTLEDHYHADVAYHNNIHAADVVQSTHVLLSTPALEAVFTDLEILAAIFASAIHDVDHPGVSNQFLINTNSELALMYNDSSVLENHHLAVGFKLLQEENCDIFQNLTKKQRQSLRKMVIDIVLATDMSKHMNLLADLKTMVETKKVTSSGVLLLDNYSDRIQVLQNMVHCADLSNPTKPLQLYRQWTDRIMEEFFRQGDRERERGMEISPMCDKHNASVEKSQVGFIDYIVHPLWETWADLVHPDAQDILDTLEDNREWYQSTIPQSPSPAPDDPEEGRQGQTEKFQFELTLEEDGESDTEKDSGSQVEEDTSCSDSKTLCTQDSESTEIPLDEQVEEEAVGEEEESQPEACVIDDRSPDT
Chain of PDE4A1A (P27815 other isoform, or with tags, fused parts or gaps): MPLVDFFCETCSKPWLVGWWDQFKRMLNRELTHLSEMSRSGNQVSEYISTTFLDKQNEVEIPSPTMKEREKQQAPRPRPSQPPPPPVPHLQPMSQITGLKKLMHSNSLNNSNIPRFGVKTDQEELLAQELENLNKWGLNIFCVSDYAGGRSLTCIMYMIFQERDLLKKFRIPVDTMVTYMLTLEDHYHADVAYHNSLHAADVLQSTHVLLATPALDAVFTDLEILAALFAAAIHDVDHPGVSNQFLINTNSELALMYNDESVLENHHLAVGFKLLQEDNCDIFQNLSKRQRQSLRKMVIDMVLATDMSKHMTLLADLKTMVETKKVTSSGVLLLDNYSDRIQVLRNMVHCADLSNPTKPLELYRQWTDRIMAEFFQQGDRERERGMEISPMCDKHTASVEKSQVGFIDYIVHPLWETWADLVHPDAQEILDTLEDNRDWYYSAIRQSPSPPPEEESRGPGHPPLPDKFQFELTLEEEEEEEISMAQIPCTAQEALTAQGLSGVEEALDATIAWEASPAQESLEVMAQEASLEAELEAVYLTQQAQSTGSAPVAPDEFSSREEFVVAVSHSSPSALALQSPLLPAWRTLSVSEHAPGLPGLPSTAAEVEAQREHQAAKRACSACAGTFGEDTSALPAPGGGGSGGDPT
Chain of SERT (P31645 whole entry, species assumed): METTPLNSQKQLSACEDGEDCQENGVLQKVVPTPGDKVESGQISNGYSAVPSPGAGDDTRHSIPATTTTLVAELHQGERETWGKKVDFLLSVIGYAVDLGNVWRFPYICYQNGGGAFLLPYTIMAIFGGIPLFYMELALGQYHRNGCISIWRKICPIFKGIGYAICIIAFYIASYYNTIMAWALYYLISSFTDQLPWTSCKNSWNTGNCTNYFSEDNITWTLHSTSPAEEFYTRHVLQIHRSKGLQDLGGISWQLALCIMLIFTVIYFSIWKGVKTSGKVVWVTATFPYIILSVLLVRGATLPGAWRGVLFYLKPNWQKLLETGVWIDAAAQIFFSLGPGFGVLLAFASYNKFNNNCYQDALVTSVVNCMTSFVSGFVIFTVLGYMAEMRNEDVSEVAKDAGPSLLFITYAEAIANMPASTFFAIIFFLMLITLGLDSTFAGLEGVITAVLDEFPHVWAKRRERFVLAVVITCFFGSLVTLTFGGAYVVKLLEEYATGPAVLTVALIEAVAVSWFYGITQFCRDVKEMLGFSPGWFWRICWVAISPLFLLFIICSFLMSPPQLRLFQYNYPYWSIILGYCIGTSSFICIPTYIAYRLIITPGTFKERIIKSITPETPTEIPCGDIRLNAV
Chain of PDE4C1 (Q08493 whole entry, canonical isoform): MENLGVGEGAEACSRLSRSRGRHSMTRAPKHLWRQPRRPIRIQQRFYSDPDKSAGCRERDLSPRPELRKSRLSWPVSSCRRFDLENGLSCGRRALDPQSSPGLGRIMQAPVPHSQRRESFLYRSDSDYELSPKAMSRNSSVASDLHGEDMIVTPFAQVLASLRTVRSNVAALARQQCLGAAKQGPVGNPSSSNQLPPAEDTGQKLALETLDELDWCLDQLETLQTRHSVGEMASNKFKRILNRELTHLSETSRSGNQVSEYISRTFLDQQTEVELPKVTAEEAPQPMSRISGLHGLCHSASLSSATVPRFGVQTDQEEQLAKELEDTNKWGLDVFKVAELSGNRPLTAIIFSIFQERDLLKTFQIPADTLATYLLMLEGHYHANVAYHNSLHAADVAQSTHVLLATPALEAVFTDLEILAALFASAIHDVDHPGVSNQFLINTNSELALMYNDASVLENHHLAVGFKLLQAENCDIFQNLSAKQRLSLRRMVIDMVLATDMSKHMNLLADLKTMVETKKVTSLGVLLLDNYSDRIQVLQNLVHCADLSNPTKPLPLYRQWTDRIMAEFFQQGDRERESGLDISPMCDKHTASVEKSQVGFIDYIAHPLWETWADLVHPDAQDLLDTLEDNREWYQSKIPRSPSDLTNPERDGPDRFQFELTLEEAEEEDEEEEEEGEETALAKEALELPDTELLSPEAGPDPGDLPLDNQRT

Structure (SMILES) | IC50 (SERT) | inhibition at 10 µM (PDE4A1A) | inhibition at 10 µM (PDE4B2) | inhibition at 10 µM (PDE4C1) | inhibition at 10 µM (PDE4D2) | PDE4 Isoform % Inhibition @ 10 μM PDE4A1A (PDE4A1A; 10 μM) | PDE4 Isoform % Inhibition @ 10 μM PDE4B2 (PDE4B2; 10 μM) | PDE4 Isoform % Inhibition @ 10 μM PDE4C1 (PDE4C1; 10 μM) | PDE4 Isoform % Inhibition @ 10 μM PDE4D2 (PDE4D2; 10 μM)
COc1ccc([C@]23CCN(C)[C@H]2CC(=O)C=C3c2ccccc2)cc1OC (racemic) [Compound 201, rac-(3aS,7aS)-3a-(3,4-dimethoxyphenyl)-1-methyl-4-phenyl-1,2,3,3a,7,7a-hexahydro-6H-indol-6-one] | > 1000 nM | ≥ 70% | ≥ 70% | 30 to 50% | ≥ 70% |  |  |  | 
COc1ccc([C@@]23CCN(C)[C@H]2CC(=O)[C@@H]2O[C@@H]23)cc1OC (racemic) [Compound 208, rac-(1aR,3aS,6aS,6bR)-6a-(3,4-dimethoxyphenyl)-4-methyloctahydro-2H-oxireno[2,3-e]indol-2-one] | 50 to 100 nM | ≥ 70% | ≥ 70% | ≥ 70% | ≥ 70% |  |  |  | 
COc1ccc([C@@]23CC[C@H](n4ccc(C(F)(F)F)n4)C[C@@H]2N(C)CC3)cc1OC [Compound 101, (3aS,6S,7aS)-3a-(3,4-dimethoxyphenyl)-1-methyl-6-(3-(trifluoromethyl)-1H-pyrazol-1-yl)octahydro-1H-indole] |  | < 30% | < 30% | < 30% | < 30% |  |  |  | 
COc1ccc([C@@]23CC[C@H](n4cccn4)C[C@@H]2N(C)CC3)cc1OC [Compound 102, (3aS,6S,7aS)-3a-(3,4-dimethoxyphenyl)-1-methyl-6-(1H-pyrazol-1-yl)octahydro-1H-indole] | < 50 nM | < 30% | < 30% | < 30% | < 30% |  |  |  | 
COc1ccc([C@@]23CC[C@@H](n4cccn4)C[C@@H]2N(C)CC3)cc1OC [Compound 103, (3aS,6R,7aS)-3a-(3,4-dimethoxyphenyl)-1-methyl-6-(1H-pyrazol-1-yl)octahydro-1H-indole] | < 50 nM | < 30% | < 30% | < 30% | < 30% |  |  |  | 
COc1ccc([C@@]23CC[C@H](N4CCC4)C[C@@H]2N(C)CC3)cc1OC [Compound 104, (3aS,6S,7aS)-6-(azetidin-1-yl)-3a-(3,4-dimethoxyphenyl)-1-methyloctahydro-1H-indole] | 100 to 500 nM | < 30% | < 30% | < 30% | < 30% |  |  |  | 
COc1ccc([C@@]23CC[C@@H](N4CCCC4)C[C@@H]2N(C)CC3)cc1OC [Compound 105, (3aS,6R,7aS)-3a-(3,4-dimethoxyphenyl)-1-methyl-6-(pyrrolidin-1-yl)octahydro-1H-indole] | 100 to 500 nM | < 30% | < 30% | < 30% | < 30% |  |  |  | 
COc1ccc([C@@]23CC[C@H](N4CCCC4)C[C@@H]2N(C)CC3)cc1OC [Compound 106, (3aS,6S,7aS)-3a-(3,4-dimethoxyphenyl)-1-methyl-6-(pyrrolidin-1-yl)octahydro-1H-indole] | 500 to 1000 nM | < 30% | < 30% | < 30% | < 30% |  |  |  | 
COc1ccc([C@@]23CC[C@H](N4CCCCC4)C[C@@H]2N(C)CC3)cc1OC [Compound 107, (3aS,6S,7aS)-3a-(3,4-dimethoxyphenyl)-1-methyl-6-(piperidin-1-yl)octahydro-1H-indole] | > 1000 nM | < 30% | < 30% | < 30% | < 30% |  |  |  | 
COc1ccc([C@@]23CC[C@H](N4CCOCC4)C[C@@H]2N(C)CC3)cc1OC [Compound 108, 4-((3aS,6S,7aS)-3a-(3,4-dimethoxyphenyl)-1-methyloctahydro-1H-indol-6-yl)morpholine] | 100 to 500 nM | < 30% | < 30% | < 30% | < 30% |  |  |  | 
COc1ccc([C@@]23CC[C@@H](N4CCOCC4)C[C@@H]2N(C)CC3)cc1OC [Compound 109, 4-((3aS,6R,7aS)-3a-(3,4-dimethoxyphenyl)-1-methyloctahydro-1H-indol-6-yl)morpholine] | 100 to 500 nM | < 30% | < 30% | < 30% | < 30% |  |  |  | 
COc1ccc([C@@]23CC[C@@H](N4CCCC4=O)C[C@@H]2N(C)CC3)cc1OC [Compound 110, 1-((3aS,6R,7aS)-3a-(3,4-dimethoxyphenyl)-1-methyloctahydro-1H-indol-6-yl)pyrrolidin-2-one] | < 50 nM | < 30% | < 30% | < 30% | < 30% |  |  |  | 
COc1ccc([C@@]23CC[C@H](N4CCCC4=O)C[C@@H]2N(C)CC3)cc1OC [Compound 111, 1-((3aS,6S,7aS)-3a-(3,4-dimethoxyphenyl)-1-methyloctahydro-1H-indol-6-yl)pyrrolidin-2-one] | < 50 nM | < 30% | < 30% | < 30% | < 30% |  |  |  | 
COc1ccc([C@@]23CC[C@@H](n4ccc(C(F)(F)F)n4)C[C@@H]2N(C)CC3)cc1OC [Compound 115, (3aS,6R,7aS)-3a-(3,4-dimethoxyphenyl)-1-methyl-6-(3-(trifluoromethyl)-1H-pyrazol-1-yl)octahydro-1H-indole] | < 50 nM | < 30% | < 30% | < 30% | < 30% |  |  |  | 
COc1ccc([C@@]23CC[C@@H](N4CCC4)C[C@@H]2N(C)CC3)cc1OC [Compound 116, (3aS,6R,7aS)-6-(azetidin-1-yl)-3a-(3,4-dimethoxyphenyl)-1-methyloctahydro-1H-indole] | 500 to 1000 nM | < 30% | < 30% | < 30% | < 30% |  |  |  | 
COc1ccc([C@]23CCN(C)[C@H]2CC2(CCCO2)CC3)cc1OC (stereo partly drawn) [Compound 117, (3a'S,7a'S)-3a′-(3,4-dimethoxyphenyl)-1′-methyldecahydro-3H-spiro[furan-2,6′-indole]] | < 50 nM | 30 to 50% | 30 to 50% | < 30% | 30 to 50% |  |  |  | 
COc1ccc([C@]23CCN(C)[C@H]2CC2(CCO2)CC3)cc1OC (stereo partly drawn) [Compound 118, (3aS,7aS)-3a-(3,4-dimethoxyphenyl)-1-methyloctahydrospiro[indole-6,2′-oxetane]] | < 50 nM | 30 to 50% | < 30% | 30 to 50% | 30 to 50% |  |  |  | 
COc1ccc([C@]23CC[C@@H](n4ccc(C(F)(F)F)n4)C[C@H]2N(C)CC3)cc1OC [Compound 121] | 100 to 500 nM |  |  |  |  | D (D if the percent inhibition is less than 30%) | B (B if the percent inhibition is 50-70%) | D (D if the percent inhibition is less than 30%) | B (B if the percent inhibition is 50-70%)
CCN1CC[C@]2(c3ccc(OC)c(OC)c3)CCC(=O)C[C@H]12 [Compound 223] | > 1000 nM |  |  |  |  |  |  |  | 
CCN1CC[C@@]2(c3ccc(OC)c(OC)c3)CCC(=O)C[C@@H]12 [Compound 224] | < 50 nM |  |  |  |  |  |  |  | 
COc1ccc([C@@]23CCC(=O)C[C@@H]2N(C(C)C)CC3)cc1OC [Compound 226] | 500 to 1000 nM |  |  |  |  |  |  |  | 
COc1ccc([C@]23CCC(=O)C[C@H]2N(C(C)C)CC3)cc1OC [Compound 227] | 500 to 1000 nM |  |  |  |  |  |  |  | 
